From patent US10954228B2 (NATIONAL INSTITUTES OF HEALTH, UNITED STATES DEPARTMENT OF …, priority 2016, dated 2021) come the findings set out here.

The target of the experiment is Human LDHA (Homo sapiens (Human), UniProt P00338). As to the kind of experiment: human LDHA primary biochemical assay. The conditions noted are these: biochemical LDHA inhibitory activity, assay of Example 1; activity level classes defined in nM. The source says: This example describes a human LDHA primary biochemical assay employed in the characterization of a compound of formula (I) in an embodiment of the invention.
Test compounds were placed in a Greiner Bio-One (Monroe, N.C.) 1536-well black solid bottom assay plate. 200 millimolar (mM) Tris HCl, pH 7.4, 100 micromolar (μM) EDTA and 0.01% TWEEN-20™, final concentration, was used as the assay buffer. The LDHA reagent was 2 nanomolar (nM) Human LDHA (Meridian Life Science, Inc., Memphis, Tenn.), final concentration, in assay buffer. The substrate reagent was 0.06 mM NADH and 0.2 mM sodium pyruvate, final concentration, in assay buffer. The resazurin/diaphorase coupling reagent was 0.037 mM resazurin and 0.133 milligrams per milliliter (mg/mL) diaphorase, final concentration, in assay buffer. The inhibition of LDHA activity was measured by fluorescence emission.
In general, IC50 refers to the concentration at which inhibition is half-maximal. Lower therefore signals inhibition by little substance. With `Cc1ncc(-c2cccc(-c3nn(-c4nc(C(=O)O)cs4)c(CC4CC4)c3Cc3ccc(S(N)(=O)=O)c(F)c3)c2)cn1` [Compound 214, 2-[5-(cyclopropylmethyl)-4-[(3-fluoro-4-sulfamoylphenyl)methyl]-3-[3-(2-methylpyrimidin-5-yl)phenyl]pyrazol-1-yl]-1,3-thiazole-4-carboxylic acid], the IC50 was under 100 nM. Compound `CC(C)c1cnc(-c2cccc(-c3nn(-c4nc(C(=O)O)cs4)c(CC4CC4)c3Cc3ccc(S(N)(=O)=O)c(F)c3)c2)s1` [Compound 215, 2-[5-(cyclopropylmethyl)-4-[(3-fluoro-4-sulfamoylphenyl)methyl]-3-[3-(5-isopropyl-1,3-thiazol-2-yl)phenyl]pyrazol-1-yl]-1,3-thiazole-4-carboxylic acid] displayed an IC50 of under 100 nM. The compound `Cc1cnc(-c2cccc(-c3nn(-c4nc(C(=O)O)cs4)c(CC4CC4)c3Cc3ccc(S(N)(=O)=O)c(F)c3)c2)nc1` [Compound 217] came in with an IC50 of under 100 nM. In the case of `NS(=O)(=O)c1ccc(Cc2c(-c3cccc(-c4ccc(C(F)(F)F)cc4)c3)nn(-c3nc(C(=O)O)cs3)c2CC2CC2)cc1F` [Compound 219, 2-(5-(cyclopropylmethyl)-4-(3-fluoro-4-sulfamoylbenzyl)-3-(4′-(trifluoromethyl)-[1,1′-biphenyl]-3-yl)-1H-pyrazol-1-yl)thiazole-4-carboxylic acid] it was under 100 nM; in that of `NS(=O)(=O)c1ccc(Cc2c(-c3cccc(-c4ccc5c(c4)CCC5)c3)nn(-c3nc(C(=O)O)cs3)c2CC2CC2)cc1F` [Compound 220, 2-(5-(cyclopropylmethyl)-3-(3-(2,3-dihydro-1H-inden-5-yl)phenyl)-4-(3-fluoro-4-sulfamoylbenzyl)-1H-pyrazol-1-yl)thiazole-4-carboxylic acid], under 100 nM. The figure for `NS(=O)(=O)c1ccc(Cc2c(-c3cccc(-c4ccc(C5CC5)cc4)c3)nn(-c3nc(C(=O)O)cs3)c2CC2CC2)cc1F` [Compound 222, 2-(3-(4′-cyclopropyl-[1,1′-biphenyl]-3-yl)-5-(cyclopropylmethyl)-4-(3-fluoro-4-sulfamoylbenzyl)-1H-pyrazol-1-yl)thiazole-4-carboxylic acid] is 100 to 1000 nM. In the case of `CCc1cc(-c2cc(-c3nn(-c4nc(C(=O)O)cs4)c(CC4CC4)c3Cc3ccc(S(N)(=O)=O)c(F)c3)ccc2F)ccc1OC` [Compound 223, 2-(5-(cyclopropylmethyl)-3-(3′-ethyl-6-fluoro-4′-methoxy-[1,1′-biphenyl]-3-yl)-4-(3-fluoro-4-sulfamoylbenzyl)-1H-pyrazol-1-yl)thiazole-4-carboxylic acid], the IC50 was in the range of 100 to 1000 nM. The compound `NS(=O)(=O)c1ccc(Cc2c(-c3cccc(-c4ccc(C(F)(F)C(F)(F)F)cc4)c3)nn(-c3nc(C(=O)O)cs3)c2CC2CC2)cc1F` [Compound 224, 2-(5-(cyclopropylmethyl)-4-(3-fluoro-4-sulfamoylbenzyl)-3-(4′-(perfluoroethyl)-[1,1′-biphenyl]-3-yl)-1H-pyrazol-1-yl)thiazole-4-carboxylic acid] registered a 50% inhibitory concentration (IC50) of 100 to 1000 nM. The figure for `NS(=O)(=O)c1ccc(Cc2c(-c3ccc(F)c(-c4ccc(C(F)(F)C(F)(F)F)cc4)c3)nn(-c3nc(C(=O)O)cs3)c2CC2CC2)cc1F` [Compound 225, 2-(5-(cyclopropylmethyl)-3-(6-fluoro-4′-(perfluoroethyl)-[1,1′-biphenyl]-3-yl)-4-(3-fluoro-4-sulfamoylbenzyl)-1H-pyrazol-1-yl)thiazole-4-carboxylic acid] is 100 to 1000 nM; for `CC(C)Cc1ccc(-c2cccc(-c3nn(-c4nc(C(=O)O)cs4)c(CC4CC4)c3Cc3ccc(S(N)(=O)=O)c(F)c3)c2)cc1` [Compound 226, 2-(5-(cyclopropylmethyl)-4-(3-fluoro-4-sulfamoylbenzyl)-3-(4′-isobutyl-[1,1′-biphenyl]-3-yl)-1H-pyrazol-1-yl)thiazole-4-carboxylic acid] it is 100 to 1000 nM.

Compound `CC(C)Cc1ccc(-c2cc(-c3nn(-c4nc(C(=O)O)cs4)c(CC4CC4)c3Cc3ccc(S(N)(=O)=O)c(F)c3)ccc2F)cc1` [Compound 227, 2-(5-(cyclopropylmethyl)-3-(6-fluoro-4′-isobutyl-[1,1′-biphenyl]-3-yl)-4-(3-fluoro-4-sulfamoylbenzyl)-1H-pyrazol-1-yl)thiazole-4-carboxylic acid] returned an IC50 of 100 to 1000 nM. Take `Cc1cc(-c2cccc(-c3nn(-c4nc(C(=O)O)cs4)c(CC4CC4)c3Cc3ccc(S(N)(=O)=O)c(F)c3)c2)ccc1O` [Compound 228, 2-(5-(cyclopropylmethyl)-4-(3-fluoro-4-sulfamoylbenzyl)-3-(4′-hydroxy-3′-methyl-[1,1′-biphenyl]-3-yl)-1H-pyrazol-1-yl)thiazole-4-carboxylic acid]: the IC50 is under 100 nM. `NS(=O)(=O)c1ccc(Cc2c(-c3cccc(-c4ccc(O)c(F)c4)c3)nn(-c3nc(C(=O)O)cs3)c2CC2CC2)cc1F` [Compound 229, 2-(5-(cyclopropylmethyl)-3-(3′-fluoro-4′-hydroxy-[1,1′-biphenyl]-3-yl)-4-(3-fluoro-4-sulfamoylbenzyl)-1H-pyrazol-1-yl)thiazole-4-carboxylic acid] registered an IC50 of under 100 nM. Regarding `CC(C)c1ccc(-c2cccc(-c3nn(-c4nc(C(=O)O)cs4)c(CC4CC4)c3Cc3ccc(S(N)(=O)=O)c(F)c3)c2)cc1F` [Compound 230, 2-(5-(cyclopropylmethyl)-3-(3′-fluoro-4′-isopropyl-[1,1′-biphenyl]-3-yl)-4-(3-fluoro-4-sulfamoylbenzyl)-1H-pyrazol-1-yl)thiazole-4-carboxylic acid], the IC50 was 100 to 1000 nM. In the case of `Cc1ccc(C#Cc2cccc(-c3nn(-c4nc(C(=O)O)cs4)c(CC4CC4)c3Cc3ccc(S(N)(=O)=O)c(F)c3)n2)s1` [Compound 231, 2-(5-(cyclopropylmethyl)-4-(3-fluoro-4-sulfamoylbenzyl)-3-(6-((5-methylthiophen-2-yl)ethynyl)pyridin-2-yl)-1H-pyrazol-1-yl)thiazole-4-carboxylic acid] it was under 100 nM; in that of `Cc1ccc(C#Cc2cccc(-c3nn(-c4nc(C(=O)O)cs4)c(CCC4CC4)c3Cc3ccc(S(N)(=O)=O)c(F)c3)c2)o1` [Compound 232, 2-(5-(2-cyclopropylethyl)-4-(3-fluoro-4-sulfamoylbenzyl)-3-(3-((5-methylfuran-2-yl)ethynyl)phenyl)-1H-pyrazol-1-yl)thiazole-4-carboxylic acid], under 100 nM; in that of `Cc1ccc(C#Cc2ccc(-c3nn(-c4nc(C(=O)O)cs4)c(CC4CC4)c3Cc3ccc(S(N)(=O)=O)c(F)c3)s2)s1` [Compound 233, 2-(5-(cyclopropylmethyl)-4-(3-fluoro-4-sulfamoylbenzyl)-3-(5-((5-methylthiophen-2-yl)ethynyl)thiophen-2-yl)-1H-pyrazol-1-yl)thiazole-4-carboxylic acid], 100 to 1000 nM. Consider `Cc1cnc(C#Cc2cccc(-c3nn(-c4nc(C(=O)O)cs4)c(CCC4CC4)c3Cc3ccc(S(N)(=O)=O)c(F)c3)c2)s1` [Compound 234, 2-(5-(2-cyclopropylethyl)-4-(3-fluoro-4-sulfamoylbenzyl)-3-(3-((5-methylthiazol-2-yl)ethynyl)phenyl)-1H-pyrazol-1-yl)thiazole-4-carboxylic acid], for which the IC50 was under 100 nM. In the case of `Cc1ncc(C#Cc2cccc(-c3nn(-c4nc(C(=O)O)cs4)c(CCC4CC4)c3Cc3ccc(S(N)(=O)=O)c(F)c3)c2)s1` [Compound 235, 2-(5-(2-cyclopropylethyl)-4-(3-fluoro-4-sulfamoylbenzyl)-3-(3-((2-methylthiazol-5-yl)ethynyl)phenyl)-1H-pyrazol-1-yl)thiazole-4-carboxylic acid] it was under 100 nM; in that of `Cc1nc(C#Cc2cccc(-c3nn(-c4nc(C(=O)O)cs4)c(CC4CC4)c3Cc3ccc(S(N)(=O)=O)c(F)c3)c2)cs1` [Compound 236, 2-(5-(cyclopropylmethyl)-4-(3-fluoro-4-sulfamoylbenzyl)-3-(3-((2-methylthiazol-4-yl)ethynyl)phenyl)-1H-pyrazol-1-yl)thiazole-4-carboxylic acid], under 100 nM. On to `Cc1ccc(C#Cc2csc(-c3nn(-c4nc(C(=O)O)cs4)c(CC4CC4)c3Cc3ccc(S(N)(=O)=O)c(F)c3)c2)s1` [Compound 237, 2-(5-(cyclopropylmethyl)-4-(3-fluoro-4-sulfamoylbenzyl)-3-(4-((5-methylthiophen-2-yl)ethynyl)thiophen-2-yl)-1H-pyrazol-1-yl)thiazole-4-carboxylic acid], for which the IC50 lay within 100 to 1000 nM. `Cc1cc(C#Cc2cccc(-c3nn(-c4nc(C(=O)O)cs4)c(CCC4CC4)c3Cc3ccc(S(N)(=O)=O)c(F)c3)c2)c(C)s1` [Compound 238, 2-(5-(2-cyclopropylethyl)-3-(3-((2,5-dimethylthiophen-3-yl)ethynyl)phenyl)-4-(3-fluoro-4-sulfamoylbenzyl)-1H-pyrazol-1-yl)thiazole-4-carboxylic acid] came in with an IC50 of 100 to 1000 nM. For the compound `Cc1cc(C#Cc2cccc(-c3nn(-c4nc(C(=O)O)cs4)c(CCC4CC4)c3Cc3ccc(S(N)(=O)=O)c(F)c3)c2)cs1` [Compound 239, 2-(5-(2-cyclopropylethyl)-4-(3-fluoro-4-sulfamoylbenzyl)-3-(3-((5-methylthiophen-3-yl)ethynyl)phenyl)-1H-pyrazol-1-yl)thiazole-4-carboxylic acid], the 50% inhibitory concentration (IC50) lay within 100 to 1000 nM. The figure for `Cc1cc(C#Cc2cccc(-c3nn(-c4nc(C(=O)O)cs4)c(CC4CC4)c3Cc3ccc(S(N)(=O)=O)c(F)c3)c2)cs1` [Compound 240, 2-(5-(cyclopropylmethyl)-4-(3-fluoro-4-sulfamoylbenzyl)-3-(3-((5-methylthiophen-3-yl)ethynyl)phenyl)-1H-pyrazol-1-yl)thiazole-4-carboxylic acid] is under 100 nM.
